Data reported in patent US8901129B2, “Methods of facilitating neural cell survival using GDNF family ligand (GFL) mimetics or RET signaling pathway activators” (GeneCode AS, priority 2009, dated 2014).

Experiments:
RET via GFRα = target: T1, RET via GFRα (UniProt P07949+Q62997); experiment: RET phosphorylation assay by immunoprecipitation and Western blotting (FIG. 4); type: cell-based; conditions: FIG. 4 lanes; active / inactive
T1 construct: Full-length flag-tagged rat Gfrα1 cDNA; FLAG; expressed in transfected cells; host or cells: αLUC cells: MG87RET murine fibroblasts stably transfected with GFRα1 plasmid, Gal4-Luc and Gal4-Elk
T1 sequence (Q62997 25-430 limits assumed): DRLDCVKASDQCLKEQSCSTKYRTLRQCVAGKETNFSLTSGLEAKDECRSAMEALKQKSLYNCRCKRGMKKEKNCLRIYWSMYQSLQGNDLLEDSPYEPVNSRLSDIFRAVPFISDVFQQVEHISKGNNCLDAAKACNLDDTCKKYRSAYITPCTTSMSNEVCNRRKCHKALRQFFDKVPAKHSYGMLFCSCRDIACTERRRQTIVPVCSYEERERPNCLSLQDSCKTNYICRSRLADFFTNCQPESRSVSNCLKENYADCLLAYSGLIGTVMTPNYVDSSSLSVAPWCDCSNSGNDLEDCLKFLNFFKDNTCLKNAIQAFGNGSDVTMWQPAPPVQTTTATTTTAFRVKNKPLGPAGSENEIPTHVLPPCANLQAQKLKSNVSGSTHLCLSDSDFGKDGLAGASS
T1 sequence (P07949 29-1114): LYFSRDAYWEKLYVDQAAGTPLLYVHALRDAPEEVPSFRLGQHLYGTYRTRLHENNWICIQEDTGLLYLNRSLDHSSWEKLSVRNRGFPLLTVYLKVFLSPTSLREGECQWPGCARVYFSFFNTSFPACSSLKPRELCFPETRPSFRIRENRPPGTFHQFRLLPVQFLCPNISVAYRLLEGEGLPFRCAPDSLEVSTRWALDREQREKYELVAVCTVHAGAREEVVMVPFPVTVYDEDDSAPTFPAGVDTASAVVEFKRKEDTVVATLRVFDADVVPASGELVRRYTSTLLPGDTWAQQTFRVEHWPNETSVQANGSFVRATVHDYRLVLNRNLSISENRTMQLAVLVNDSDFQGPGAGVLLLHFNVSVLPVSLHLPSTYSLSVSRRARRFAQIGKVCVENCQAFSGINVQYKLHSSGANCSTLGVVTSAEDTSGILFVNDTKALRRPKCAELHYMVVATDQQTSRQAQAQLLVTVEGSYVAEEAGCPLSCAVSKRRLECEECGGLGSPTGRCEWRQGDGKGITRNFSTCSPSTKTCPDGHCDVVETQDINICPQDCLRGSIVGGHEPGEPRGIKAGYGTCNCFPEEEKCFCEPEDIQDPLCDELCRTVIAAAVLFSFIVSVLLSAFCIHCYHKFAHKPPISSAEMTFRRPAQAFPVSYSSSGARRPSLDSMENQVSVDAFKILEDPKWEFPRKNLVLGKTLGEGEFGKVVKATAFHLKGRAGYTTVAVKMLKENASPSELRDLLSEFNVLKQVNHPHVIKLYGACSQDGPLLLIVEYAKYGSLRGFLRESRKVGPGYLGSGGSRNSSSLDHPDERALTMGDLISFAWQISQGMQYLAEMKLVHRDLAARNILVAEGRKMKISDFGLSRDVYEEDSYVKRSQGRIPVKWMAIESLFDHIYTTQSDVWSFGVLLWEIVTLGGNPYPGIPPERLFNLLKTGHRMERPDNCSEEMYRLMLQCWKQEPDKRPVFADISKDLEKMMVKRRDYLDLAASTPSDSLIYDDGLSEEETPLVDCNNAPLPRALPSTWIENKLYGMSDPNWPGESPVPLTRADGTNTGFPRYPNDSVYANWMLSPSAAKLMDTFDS
Description: αLUC and NOα cells plated on 35 mm tissue culture dishes were starved for 4 hours in serum-free DMEM and stimulated with 500 ng/ml of PSPN or 100 ng/ml of GDNF (positive control) for 15 min. […] The membranes were washed 3 times for 5 min in TBS-T and incubated in the 1:3000 solution of secondary anti-mouse antibodies conjugated with HRP (DAKO) diluted in TBS-T containing 3% nonfat dry milk for 45 min at room temperature. Membranes were washed with TBS-T for 5×10 min. Stained bands were visualized with ECL reagent (Pierce) using LAS3000 imaging program. […] We used secondary anti-goat antibodies conjugated with HRP (1:1500, DAKO) to detect C-20.

6-OHDA-treated rats = experiment: Side effects / toxic effects after intrastriatal injection in 6-OHDA-treated rats; type: in vivo; conditions: injected intrastriatally
Description: (§1) GDNF mimetics compounds, GDNF or vehicle is administered to the striatum at 3 weeks after the exposure to the neurotoxin 6-OHDA. The selective damage to dopaminergic neurons in the SNc, as well as striatal levels of dopamine and its metabolites are evaluated 12 weeks after the injection of 6-OHDA with tyrosine hydroxylase (TH) immunohistochemistry and HPLC, respectively. In addition, the behavioral impairment of rats is evaluated by forelimb asymmetry test (cylinder test), amphetamine induced rotation asymmetry test and Y-maze test for stereotypic spontaneous rotation deficits.
(§2) On day 21, rats are re-anesthetized with 5% isoflurane (in 70% N2O and 30% O2; flow 300 ml/min) and placed in a stereotactic frame. During the operation concentration of anesthetic is reduced to 1-1.5%. The rectal temperature is maintained at 37.0±1.0° C. with a homeothermic blanket system. The right brain hemisphere is exposed through a small craniectomy to the skull. A stereotaxic injection of the test compound, GDNF or vehicle is made into the right striatum. Each dosing solution is infused at a speed of 1 μl/min and is equally distributed between 4 sites at the following coordinates: AP+1.0, ML+2.8, DV−6.0, −5.5, −5.0 and −4.4 mm. The cannula is left in place for another 5 min before being withdrawn. The hole in the skull is subsequently filled with repair material and the skin is closed and disinfected. The rats are allowed to recover from anesthesia and are carefully monitored for possible post surgical complications. The animals are returned to the home cages with ad libitum access to food and water.
Animals are monitored daily by laboratory personnel. […] Definitions of acceptable endpoints include: no spontaneous movements and inability to drink or eat in 24-h observation period, massive bleeding, spontaneous inflammation, missing anatomy, swelling or tumors larger than 20 mm, and inability to right itself in 30 sec period.

6-OHDA lesioned rats = experiment: Amphetamine induced rotation asymmetry in 6-OHDA rat model of Parkinson's disease (FIG. 7); type: in vivo
Text: The objective of this study is to investigate the effect of intrastriatally (i.s.) administered small molecule GDNF mimetics (compounds 13, 16, 319H6 and 292651, structures shown in the description of the Figures, above) in a rat model 6-OHDA of Parkinson's disease. In the sub-acute lesion model used in this study, the lesion of the substantia nigra (SNc) that slowly progresses over weeks is created by injection of 6-OHDA into the proximity of the dopaminergic terminals in the striatum (Kirik-D 1998, Exp. Neurol. 152:259-277). In this model, a portion of the nigrostriatal projection is left intact, which can serve as a substrate for regeneration and functional recovery in response to growth promoting and neuroprotective agents.
as §1
Animals: All animal experiments are carried out according to the National Institute of Health (NIH) guidelines for the care and use of laboratory animals, and approved by the State Provincial Office of Southern Finland. Altogether 108 male Wistar rats, purchased from Charles River, Germany and weighing 220-275 g are used for the experiment. Animals are housed at a standard temperature (22±1° C.) and in a light-controlled environment (lights on from 7 am to 8 pm) with ad libitum access to food and water. Animals are grouped as follows:
as §2, with “In order to generate partial retrograde degeneration into the SNc, 6-OHDA lesioning is carried out according to Sauer and Oertel with modifications (Sauer and Oertel, 1994). Male Wistar rats” for “On day 21, rats”, “are anesthetized” for “are re-anesthetized”, “skull. The dura mater is carefully removed with fine forceps and a” for “skull. A”, “of 6-OHDA (4 μg/μl)” for “of the test compound, GDNF or vehicle”, “striatum. A total of 7 μl of 6-OHDA” for “striatum. Each dosing solution”, “of 0.5” for “of 1”
as §2, with “The rats are allowed to recover from anesthesia and are carefully monitored for possible post surgical complications. The animals are returned to the home cages with ad libitum access to food and water.” left out

Rat dopaminergic neurons = experiment: Dopaminergic neuron survival with MPP+ intoxication; type: cell-based; conditions: MPP+ 16 μM, 48 hours
Description: Rat dopaminergic neurons were cultured as described by Schinelli et al., 1988. Briefly pregnant female rats of 15 days gestation were killed by cervical dislocation (Rats Wistar; Janvier) and the fetuses removed from the uterus. The embryonic midbrains were removed and placed in ice-cold medium of Leibovitz (L15; Invitrogen) containing 1% of Penicillin-Streptomycin (PS; Invitrogen) and 1% of bovine serum albumin (BSA; Sigma). Only the ventral portions of the mesencephalic flexure were used for the cell preparations as this is the region of the developing brain rich in dopaminergic neurons.
The midbrains were dissociated by trypsinisation for 20 min at 37° C. (10% of trypsin EDTA 10×; Invitrogen) diluted in PBS without calcium and magnesium. The reaction was stopped by the addition of Dulbecco's modified Eagle's medium (DMEM; Invitrogen) containing DNAase I grade II (0.1 mg/ml; Roche Diagnostic;) and 10% of fetal calf serum (FCS; Invitrogen). Cells were then mechanically dissociated by 3 passages through a 10 ml pipette. Cells were then centrifuged at 180×g for 10 min at room temperature on a layer of BSA (3.5%) in L15 medium. The supernatant was discarded and the cells of pellet were re-suspended in a defined culture medium consisting of Neurobasal (Invitrogen) supplemented with B27 (2%; Invitrogen), L-glutamine (0.2 mM; Invitrogen) and 1% of PS solution. Viable cells were counted in a Neubauer cytometer using the trypan blue exclusion test.
The cells were seeded at a density of 69 000 cells/well in 96 well-plates (wells were pre-coated with poly-L-lysine (10 μg/ml; Sigma)) and were cultured at 37° C. in a humidified air (95%)/CO2 (5%) atmosphere. Half of the medium was changed every 2 days with fresh medium. In these conditions, after 5 days of culture, astrocytes were present in the culture and release growth factor allowing neurons differentiation. Three to five percent of the neuronal cell population were dopaminergic neurons.
On day 6, the medium was removed and fresh medium was added with or without MPP^+ at 16 μM and with or without test substance. After 48 hours of intoxication (day 8 of culture), the cells were fixed with PFA 4%. Dopaminergic neurons were labeled by a monoclonal anti-tyrosine hydroxylase (TH) antibody (Sigma). This antibody labels the neurites and cell bodies of dopaminergic neurons. […] For each condition, 2×10 pictures per well were taken using InCell Analyzer™ 1000 (Amersham Biosciences) with 10× magnification. All the images were taken in the same conditions.
Analysis of the neurite length and number of neurons labeled with anti tyrosine hydroxylase (TH) antibodies with or without MPP+ intoxication was carried out using InCell Analyzer™ 1000 3.2.Workstation software. Dopaminergic neurons and total length neurites were counted on the 10 pictures (12 analyses by culture condition).

CCN(CC)CCCC(C)Nc1cc(/C=C/c2ccc(Cl)cc2)nc2ccc(N(C)C)cc12 (stereo not drawn) [compound 219902]
RET activation (phosphotyrosine Western blot of immunoprecipitated RET) (RET via GFRα): active

CCN(CC)CCCC(C)Nc1cc(/C=C/c2ccc(Cl)cc2)nc2cc(N(C)C)ccc12 (stereo not drawn) [compound 292651]
toxic effects in behavioral assays (6-OHDA-treated rats): did not cause toxic effects | amphetamine-induced ipsilateral rotation (6-OHDA lesioned rats; 1 ug intrastriatal, 3 weeks after 6-OHDA, measured 6 weeks after 6-OHDA): reduced amphetamine-induced ipsilateral rotation | amphetamine-induced ipsilateral rotation of lesioned rats (6-OHDA lesioned rats; injected into striatum 3 weeks after 6-OHDA, dose not stated): significantly reduce | RET activation (phosphotyrosine Western blot of immunoprecipitated RET) (RET via GFRα): active

OCCNCCNc1c2ccccc2nc2cc(Cl)ccc12 [compound 13005]
RET activation (phosphotyrosine Western blot of immunoprecipitated RET) (RET via GFRα): inactive

Clc1ccc2c(NCCCCCCNc3ccnc4cc(Cl)ccc34)ccnc2c1 [compound 349051]
RET activation (phosphotyrosine Western blot of immunoprecipitated RET) (RET via GFRα): inactive

CCN(CC)CCCCCCNc1ccnc2cc(Cl)ccc12 [compound 108]
RET activation (phosphotyrosine Western blot of immunoprecipitated RET) (RET via GFRα): inactive

CCN(CC)S(=O)(=O)c1ccc(OC)c(N2CCN(C(=O)c3ccc(F)cc3C(F)(F)F)CC2)c1 [319H6]
% Cytoprotection vs controls (Rat dopaminergic neurons; 0.1 μM): 9% | % TH+ Neurons (Rat dopaminergic neurons; 0.1 μM): 59% | % Cytoprotection vs controls (Rat dopaminergic neurons; 1 μM): 33% | % TH+ Neurons (Rat dopaminergic neurons; 1 μM): 70% | % Cytoprotection vs controls (Rat dopaminergic neurons; 10 μM): 36% | % TH+ Neurons (Rat dopaminergic neurons; 10 μM): 71%

CC(CCCN(C)Cc1ccccc1)Nc1ccnc2cc(Cl)ccc12 (stereo not drawn) [compound 143511]
RET activation (phosphotyrosine Western blot of immunoprecipitated RET) (RET via GFRα): active

CCN(CC)CCCC(C)Nc1ccnc2cc(Cl)ccc12 (stereo not drawn) [chloroquine]
RET activation (phosphotyrosine Western blot of immunoprecipitated RET) (RET via GFRα): inactive

B1: BDNF: native brain-derived neurotrophic factor, comparator in the neuron survival assay (protein, UniProt P23560 19-247, looked up)
Neurotrophic factor BDNF …: APMKEANIRGQGGLAYPGVRTHGTLESVNGPKAGSRGLTSLADTFEHVIEELLDEDQKVRPNEENNKDADLYTSRVMLSSQVPLEPPLLFLLEEYKNYLDAANMSMRVRRHSDPARRGELSVCDSISEWVTAADKKTAVDMSGGTVTVLEKVPVSKGQLKQYFYETKCNPMGYTKEGCRGIDKRHWNSQCRTTQSYVRALTMDSKKRIGWRFIRIDTSCVCTLTIKRGR
% Cytoprotection vs controls (Rat dopaminergic neurons; 10 ng/mL): 49% | % TH+ Neurons (Rat dopaminergic neurons; 10 ng/mL): 77%
